Experimental data reported in ChEMBL document CHEMBL1201862, “PubChem BioAssay data set” (2004).
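In this assay, cells in 96-well plates receive the compound at five concentrations for 48 hours. Endpoints are linearly interpolated between the surrounding concentrations. The concentration for 50% growth inhibition is given as GI50.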 Active and inactive are the calls of the source. Rule as the data show it: active = GI50 up to about 1.1 µM and inactive = higher.

How the values were obtained:
Assay in all cases: DTP human tumour cell line panel, 48 h
MDA-N = tested on: MDA-N
SW-620 = tested on: SW-620
RPMI-8226 = tested on: RPMI-8226
SK-OV-3 = tested on: SK-OV-3
M14 = tested on: M14
UO-31 = tested on: UO-31
SNB-19 = tested on: SNB-19
SR = tested on: SR
OVCAR-5 = tested on: OVCAR-5
PC-3 = tested on: PC-3
SF-539 = tested on: SF-539
EKVX = tested on: EKVX
IGROV-1 = tested on: IGROV-1
UACC-257 = tested on: UACC-257
OVCAR-4 = tested on: OVCAR-4
MDA-MB-435 = tested on: MDA-MB-435
HCT-116 = tested on: HCT-116
HOP-62 = tested on: HOP-62
SF-295 = tested on: SF-295
SK-MEL-28 = tested on: SK-MEL-28
RXF 393 = tested on: RXF 393
T47D = tested on: T47D
K562 = tested on: K562
HT-29 = tested on: HT-29
NCI/ADR-RES = tested on: NCI/ADR-RES
NCI-H522 = tested on: NCI-H522
HOP-92 = tested on: HOP-92
SK-MEL-5 = tested on: SK-MEL-5
BT-549 = tested on: BT-549
Hs-578T = tested on: Hs-578T
MCF7 = tested on: MCF7
SNB-75 = tested on: SNB-75
NCI-H460 = tested on: NCI-H460
ACHN = tested on: ACHN
MDA-MB-231 = tested on: MDA-MB-231
TK-10 = tested on: TK-10
OVCAR-8 = tested on: OVCAR-8
SK-MEL-2 = tested on: SK-MEL-2
OVCAR-3 = tested on: OVCAR-3
SN12C = tested on: SN12C
KM12 = tested on: KM12
NCI-H226 = tested on: NCI-H226
U-251 = tested on: U-251
CAKI-1 = tested on: CAKI-1
A498 = tested on: A498
COLO 205 = tested on: COLO 205
HCC 2998 = tested on: HCC 2998
UACC-62 = tested on: UACC-62
A549 = tested on: A549
Malme-3M = tested on: Malme-3M
NCI-H23 = tested on: NCI-H23
DU-145 = tested on: DU-145
HCT-15 = tested on: HCT-15
786-0 = tested on: 786-0
SF-268 = tested on: SF-268
HL-60 = tested on: HL-60
LOX IMVI = tested on: LOX IMVI
CCRF-CEM = tested on: CCRF-CEM
MOLT-4 = tested on: MOLT-4

Question: CC(C)(C)C1=CC(=C2C=Cc3ccccc3O2)C=C(C(C)(C)C)C1=O was tested. Which GI50 (MDA-N) did it give?
Answer: 2.31 µM (inactive)

Question: What about the GI50 (SW-620) of the same molecule?
Answer: 2.84 µM (inactive)

Question: And the GI50 (RPMI-8226)?
Answer: 2.15 µM (inactive)

Question: What about the GI50 (SK-OV-3) of the same molecule?
Answer: 13.6 µM (inactive)

Question: What about the GI50 (M14) of the same molecule?
Answer: 3.55 µM (inactive)

Question: What about the GI50 (UO-31) of the same molecule?
Answer: 4.68 µM (inactive)

Question: And the GI50 (SNB-19)?
Answer: 9.16 µM (inactive)

Question: And the GI50 (SR)?
Answer: 1.85 µM (inactive)

Question: And the GI50 (OVCAR-5)?
Answer: 6.7 µM (inactive)

Question: What about the GI50 (PC-3) of the same molecule?
Answer: 4.09 µM (inactive)

Question: What about the GI50 (SF-539) of the same molecule?
Answer: 7.05 µM (inactive)

Question: What about the GI50 (EKVX) of the same molecule?
Answer: 6.59 µM (inactive)

Question: What about the GI50 (IGROV-1) of the same molecule?
Answer: 6.53 µM (inactive)

Question: And the GI50 (UACC-257)?
Answer: 3.61 µM (inactive)

Question: What about the GI50 (OVCAR-4) of the same molecule?
Answer: 2.41 µM (inactive)

Question: What about the GI50 (MDA-MB-435) of the same molecule?
Answer: 1.75 µM (inactive)

Question: And the GI50 (HCT-116)?
Answer: 2.76 µM (inactive)

Question: What about the GI50 (HOP-62) of the same molecule?
Answer: 6.04 µM (inactive)

Question: And the GI50 (SF-295)?
Answer: 5.33 µM (inactive)

Question: What about the GI50 (SK-MEL-28) of the same molecule?
Answer: 6.25 µM (inactive)

Question: What about the GI50 (RXF 393) of the same molecule?
Answer: 2.25 µM (inactive)

Question: What about the GI50 (T47D) of the same molecule?
Answer: 1.77 µM (inactive)

Question: And the GI50 (K562)?
Answer: 3.94 µM (inactive)

Question: What about the GI50 (HT-29) of the same molecule?
Answer: 3.76 µM (inactive)

Question: And the GI50 (NCI/ADR-RES)?
Answer: 3.81 µM (inactive)

Question: What about the GI50 (NCI-H522) of the same molecule?
Answer: 3.53 µM (inactive)

Question: And the GI50 (HOP-92)?
Answer: 13.9 µM (inactive)

Question: And the GI50 (SK-MEL-5)?
Answer: 3.81 µM (inactive)

Question: And the GI50 (BT-549)?
Answer: 6.59 µM (inactive)

Question: And the GI50 (Hs-578T)?
Answer: 7 µM (inactive)

Question: What about the GI50 (MCF7) of the same molecule?
Answer: 1.86 µM (inactive)

Question: And the GI50 (SNB-75)?
Answer: 5.55 µM (inactive)

Question: And the GI50 (NCI-H460)?
Answer: 1.6 µM (inactive)

Question: What about the GI50 (ACHN) of the same molecule?
Answer: 5.51 µM (inactive)

Question: What about the GI50 (MDA-MB-231) of the same molecule?
Answer: 3.41 µM (inactive)

Question: And the GI50 (TK-10)?
Answer: 3.87 µM (inactive)

Question: What about the GI50 (OVCAR-8) of the same molecule?
Answer: 6.37 µM (inactive)

Question: And the GI50 (SK-MEL-2)?
Answer: 2.13 µM (inactive)

Question: What about the GI50 (OVCAR-3) of the same molecule?
Answer: 2.23 µM (inactive)

Question: And the GI50 (SN12C)?
Answer: 3.21 µM (inactive)

Question: What about the GI50 (KM12) of the same molecule?
Answer: 2.47 µM (inactive)

Question: And the GI50 (NCI-H226)?
Answer: 8.79 µM (inactive)

Question: What about the GI50 (U-251) of the same molecule?
Answer: 2.46 µM (inactive)

Question: What about the GI50 (CAKI-1) of the same molecule?
Answer: 3.07 µM (inactive)

Question: And the GI50 (A498)?
Answer: 4.39 µM (inactive)

Question: And the GI50 (COLO 205)?
Answer: 2.18 µM (inactive)

Question: What about the GI50 (HCC 2998) of the same molecule?
Answer: 1.61 µM (inactive)

Question: What about the GI50 (UACC-62) of the same molecule?
Answer: 2.56 µM (inactive)

Question: And the GI50 (A549)?
Answer: 4.16 µM (inactive)

Question: What about the GI50 (Malme-3M) of the same molecule?
Answer: 3.81 µM (inactive)

Question: And the GI50 (NCI-H23)?
Answer: 4.56 µM (inactive)

Question: What about the GI50 (DU-145) of the same molecule?
Answer: 4.71 µM (inactive)

Question: And the GI50 (HCT-15)?
Answer: 3.13 µM

Question: What about the GI50 (786-0) of the same molecule?
Answer: 2.67 µM (inactive)

Question: What about the GI50 (SF-268) of the same molecule?
Answer: 5.55 µM (inactive)

Question: And the GI50 (HL-60)?
Answer: 1.9 µM (inactive)

Question: And the GI50 (LOX IMVI)?
Answer: 3.06 µM (inactive)

Question: What about the GI50 (CCRF-CEM) of the same molecule?
Answer: 2.09 µM (inactive)

Question: What about the GI50 (MOLT-4) of the same molecule?
Answer: 1.73 µM (inactive)

Question: What does the source list for N#CC(c1ccccc1)N(CCc1ccccc1)C(=O)Oc1ccccc1 (configuration not stated)?
Answer: GI50 (MDA-N): > 100 µM (inactive); GI50 (SW-620): > 100 µM (inactive); GI50 (RPMI-8226): > 100 µM (inactive); GI50 (SK-OV-3): > 100 µM (inactive); GI50 (M14): > 100 µM (inactive); GI50 (UO-31): > 100 µM (inactive); GI50 (SNB-19): 53 µM (inactive); GI50 (SR): > 100 µM (inactive); GI50 (OVCAR-5): > 100 µM (inactive); GI50 (PC-3): > 100 µM (inactive); GI50 (SF-539): > 100 µM (inactive); GI50 (EKVX): > 100 µM (inactive); GI50 (IGROV-1): > 100 µM (inactive); GI50 (UACC-257): > 100 µM (inactive); GI50 (OVCAR-4): > 100 µM (inactive); GI50 (MDA-MB-435): > 100 µM (inactive); GI50 (HCT-116): > 100 µM (inactive); GI50 (HOP-62): 82 µM (inactive); GI50 (SF-295): > 100 µM (inactive); GI50 (SK-MEL-28): > 100 µM (inactive); GI50 (RXF 393): 46.9 µM (inactive); GI50 (T47D): > 100 µM (inactive); GI50 (K562): > 100 µM (inactive); GI50 (HT-29): > 100 µM (inactive); GI50 (NCI/ADR-RES): > 100 µM (inactive); GI50 (NCI-H522): > 100 µM (inactive); GI50 (HOP-92): 29.5 µM (inactive); GI50 (SK-MEL-5): > 100 µM (inactive); GI50 (BT-549): > 100 µM (inactive); GI50 (Hs-578T): 44.8 µM (inactive); GI50 (MCF7): > 100 µM (inactive); GI50 (SNB-75): 25.6 µM (inactive); GI50 (ACHN): > 100 µM (inactive); GI50 (MDA-MB-231): > 100 µM (inactive); GI50 (TK-10): > 100 µM (inactive); GI50 (OVCAR-8): > 100 µM (inactive); GI50 (SK-MEL-2): > 100 µM (inactive); GI50 (OVCAR-3): > 100 µM (inactive); GI50 (SN12C): > 100 µM (inactive); GI50 (KM12): > 100 µM (inactive); GI50 (NCI-H226): 34.1 µM (inactive); GI50 (U-251): > 100 µM (inactive); GI50 (CAKI-1): > 100 µM (inactive); GI50 (A498): > 100 µM (inactive); GI50 (COLO 205): > 100 µM (inactive); GI50 (HCC 2998): > 100 µM (inactive); GI50 (UACC-62): > 100 µM (inactive); GI50 (A549): > 100 µM (inactive); GI50 (Malme-3M): > 100 µM (inactive); GI50 (NCI-H23): > 100 µM (inactive); GI50 (DU-145): > 100 µM (inactive); GI50 (HCT-15): > 100 µM; GI50 (786-0): > 100 µM (inactive); GI50 (SF-268): > 100 µM (inactive); GI50 (HL-60): > 100 µM (inactive); GI50 (LOX IMVI): > 100 µM (inactive); GI50 (CCRF-CEM): > 100 µM (inactive); GI50 (MOLT-4): > 100 µM (inactive)
